Here are results for two compounds from article PMC12491715 (Acta Pharmaceutica Sinica. B, 2025).

Molecules are shown by their SMILES.

The target of data set [1] is T1, hBChE (Homo sapiens, UniProt P06276). Kind of data set: ChE IC50 determination, method of Ellman, hBChE. In kind it is biochemical. Here is the method:
(§1) The inhibitory potencies of the compounds against the ChEs were determined using the method of Ellman following the procedure described previously. Briefly, compound stock solutions in DMSO were incubated with Ellman’s reagent and ChEs (final concentrations: 370 μmol/L Ellman’s reagent, approximately 1 nmol/L or 50 pmol/L hBChE or hAChE, respectively) in 0.1 mol/L sodium phosphate pH 8.0 for 5 min at 20 °C. For time-dependency measurements, the pre-incubation time was varied (1, 5, 15, 30 or 60 min). The reactions were started by the addition of the substrate (final concentration, 500 μmol/L butyrylthiocholine iodide or acetylthiocholine iodide for hBChE and hAChE, respectively). The final content of DMSO was always 1%. The increase in absorbance at 412 nm was monitored for 2 min using a 96-well microplate reader (Synergy HT, BioTek Instruments, VT, USA). The initial velocities in the presence (vi) and absence (v0) of the test compounds were calculated. The inhibitory potencies were expressed as the residual activities, according to Eq. (1):(1) RA = vi / v0
(§2) For IC50 determinations, at least seven different concentrations for each compound were used. The IC50 values were obtained by plotting the residual ChE activities against the applied inhibitor concentrations, with the experimental data fitted to a four-parameter logistic function (GraphPad Prism 9.4). Tacrine and donepezil were used as positive controls.

Data set [2] deals with ICR mice icv-injected with Aβ1–42. Kind of data set: Morris water maze, mice model with icv-injection of Aβ1–42. The class given is in vivo. To be noted: 10 mg/kg, ip; compared with compound 8. As for the experimental part:
Mice model with icv-injection of Aβ1–42 The experiments were performed using ICR male mice (8–10 weeks old, weight 18–20 g), which were purchased from Shanghai Bikai Animal Breeding Factory (Shanghai, China). Animals were housed in cages (6 mice per cage) at a constant temperature of 25±2 °C, humidity of 55%±10% and a light/dark (12:12) cycle. The mice had unlimited access to food and water prior to the experiment. Specified conditions for the maintenance of mice were ensured throughout the experiments, including tree bedding (Yizheng Anlimao Biotechnology Co., Ltd., China) and lab feed (Zimao, China). For behavioural tests, mice were selected randomly, each group consisted of 6 mice. The experiments were performed between 9 am and 3 pm.
According to the literature procedure, recombinant human hexafluoroisopropanol-pretreated Aβ1–42 from Merck Millipore (Darmstadt, Germany) was dissolved in 1% DMSO, diluted with saline to the final concentration of 2 mg/mL, and incubated for 72 h to form oligomers. […]
Behavioural assays The Morris water maze was placed in a lighted room at 25 °C, and it was divided into four equal quadrants. […] The time spent searching for the missing platform was recorded by Xeye Aba image processing system (Beijing Zhongshi Dichuang Technology Development Co., Ltd.) and analysed by GraphPad Prism 5.

The target in data set [3] is T1, hBChE. Kind of data set: hBChE binding kinetics: carbamoylation and decarbamoylation, initial velocity measurements. The class given is biochemical. As for the experimental part: The progress curves for the time courses of product formation for the hydrolysis of butyrylthiocholine iodide were measured on an Agilent Cary 3500 UV–VIS spectrophotometer with Compact Peltier (thermostated at 25 °C) at 412 nm using a 0.6 mL cuvette (optical path–0.5 cm). 30 mmol/L Tris buffer pH 7.0 with 1 mg/mL BSA and 0.02% NaN3 was used and all dilutions were done in glass vessels (note: dilute hBChE solutions rapidly lose activity, presumably due to adsorption to plastic, preventing meaningful decarbamoylation assays. In our hands, under the above conditions only, the diluted and stock solutions of hBChE were stable for at least a month at room temperature.). Total volume in the cuvette was always 500 μL, and enzyme solutions that gave upon dilution v0 = (dA/dt) ≈ 0.5 (for carbamoylation) and ≈ 1 for (for decarbamoylation) were used. For carbamoylation experiments, 0.5–1 μL of enzyme stock, 5 μL of compound solution, and 484 μL of buffer were preincubated for the specified time, then 10 μL of the mixture of 25 mmol/L Ellman’s reagent (DTNB) and 20 mmol/L butyrylthiocholine (large excess to prevent substrate depletion) were added, quickly mixed, and measurement started. […] The data analysis followed the literature[63]^,[98].

Another data set addresses hAChE (Homo sapiens, UniProt P22303). Kind of data set: ChE IC50 determination, method of Ellman, hAChE. The class given is biochemical. To be noted: for remaining activity at 100 µM: residual activity at 100 μmol/L, after 5 min preincubation, read-out: hAChE RA±SD (residual activity). Here is the method: as §1, §2
(In general: DTNB colorimetry detects thiols as they appear.)

For a further data set, the system named is α2 adrenoreceptors. Also noted: method as in PMID 1975199, PMID 16389294. To be noted: α2 adrenergic antagonist; cited from earlier work.
On the set-up of data set [4]: method as in PMID 1975199, PMID 16389294. To be noted: in humans; cited from earlier work.

T1 sequence (P06276 29-602): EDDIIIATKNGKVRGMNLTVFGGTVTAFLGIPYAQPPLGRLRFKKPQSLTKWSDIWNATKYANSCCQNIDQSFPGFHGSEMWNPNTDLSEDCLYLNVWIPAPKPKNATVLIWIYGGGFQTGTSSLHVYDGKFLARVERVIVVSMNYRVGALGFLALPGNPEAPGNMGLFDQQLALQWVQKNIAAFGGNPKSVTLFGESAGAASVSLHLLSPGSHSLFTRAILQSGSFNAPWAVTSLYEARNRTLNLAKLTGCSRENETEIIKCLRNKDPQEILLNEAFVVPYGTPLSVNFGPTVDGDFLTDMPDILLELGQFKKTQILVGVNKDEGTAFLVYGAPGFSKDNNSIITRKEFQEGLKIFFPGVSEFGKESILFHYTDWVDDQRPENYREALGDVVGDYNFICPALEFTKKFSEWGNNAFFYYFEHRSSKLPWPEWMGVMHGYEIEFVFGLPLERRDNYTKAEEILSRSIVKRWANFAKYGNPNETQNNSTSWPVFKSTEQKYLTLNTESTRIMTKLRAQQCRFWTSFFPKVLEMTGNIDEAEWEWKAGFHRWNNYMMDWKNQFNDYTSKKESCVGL
hAChE, sequence (P22303 32-614): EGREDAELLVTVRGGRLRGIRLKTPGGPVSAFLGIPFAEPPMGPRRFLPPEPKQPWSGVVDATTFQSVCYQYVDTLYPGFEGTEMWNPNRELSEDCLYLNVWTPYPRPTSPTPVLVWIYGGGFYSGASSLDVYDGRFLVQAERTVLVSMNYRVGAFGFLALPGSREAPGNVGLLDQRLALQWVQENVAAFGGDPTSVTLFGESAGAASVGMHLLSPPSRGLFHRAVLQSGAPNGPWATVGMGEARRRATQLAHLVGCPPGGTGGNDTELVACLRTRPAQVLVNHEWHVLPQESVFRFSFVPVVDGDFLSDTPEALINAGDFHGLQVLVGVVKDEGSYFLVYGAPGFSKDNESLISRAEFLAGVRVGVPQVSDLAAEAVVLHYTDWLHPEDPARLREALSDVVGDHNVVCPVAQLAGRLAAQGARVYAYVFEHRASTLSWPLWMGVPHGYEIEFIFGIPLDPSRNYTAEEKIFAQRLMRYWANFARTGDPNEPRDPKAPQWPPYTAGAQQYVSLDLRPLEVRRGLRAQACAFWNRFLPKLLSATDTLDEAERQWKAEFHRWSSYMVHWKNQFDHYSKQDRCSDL

With `CCN(C)C(=O)n1cnc(C2(CC)Cc3ccccc3C2)c1` [Compound 7, N-Ethyl-4-(2-ethylindan-2-yl)-N-methyl-1H-imidazole-1-carboxamide], the concentration for half-maximal inhibition (IC50) (in general, the concentration at which inhibition is half-maximal) at hBChE [1] (after 5 min preincubation, read-out: hBChE IC50±SD) worked out at 0.0099 ± 0.0009 µM. Also, the “hBChE time-dependency observed: Yes/No” value at hBChE [1] (pre-incubation time varied) was “Yes”. Further, the “effectiveness in MWM test” value in data set [2] is recorded as “less effective”. Moreover, at hBChE [3], the Ki (as a rule, the equilibrium dissociation constant of an inhibitor or competing ligand from its target) was 0.073 ± 0.006 µM. On hBChE [3] (25 °C), the “kcarb, carbamoylation” value was found to be 7.2±4.5 min^–1; the “kdecarb, decarbamoylation” value is 0.92±0.14 ×10^–2 h^–1; the “t1/2, decarbamoylation” value turned out to be 75 ± 11 h; the “ΔG25°C‡, carbamoylation” value came out at 78.2 ± 1.7 kJ/mol. Besides, the “hAChE time-dependency observed: Yes/No” value at hAChE (pre-incubation time varied) is reported as “Yes”. The remaining activity at 100 µM on hAChE was determined as 52 ± 3%.
Turning to `CCC1(c2cnc[nH]2)Cc2ccccc2C1` [Compound 5, 4-(2-ethylindan-2-yl)-1H-imidazole, reference compound], the “ChE inhibition of the leaving groups” value at hBChE [1] (ChEs (hBChE and hAChE)) was “ineffective”. Moreover, the remaining activity at 100 µM is 82% on hBChE [1] (residual activity at 100 μmol/L, after 5 min preincubation, read-out: hBChE RA±SD (residual activity)) and 82% on hAChE. Moreover, the “potency compared to idazoxan 2” value in the data set on α2 adrenoreceptors is on record as “approx. 100 fold”. Also, the half-life (as a rule, the time in which the quantity being followed falls by half) in data set [4] was 1.7 to 2 h.
